Measurements as given in article PMC3681751, “Identification of a Novel Antimicrobial Peptide from Human Hepatitis B Virus Core Protein Arginine-Rich Domain (ARD)” (PLoS Pathogens, 2013).
Residues, ends and D or L forms follow the SMILES beside them.

How the values were obtained:
S. aureus = assay: SYTOX Green uptake (membrane permeabilization); assay type: cell-based, Staphylococcus aureus; details: 4 µM peptide; 10^7 CFU, 1 µM SYTOX Green, 37°C
Protocol: (§1) Briefly, bacteria (10^7 CFU) were prepared and mixed with 1 µM SYTOX Green (Invitrogen) for 15 minutes in the dark. […] Melittin (Sigma), the major toxin of bee venom, was used as a positive control to provide maximal permeabilization.

P. aeruginosa = assay: SYTOX Green uptake (membrane permeabilization); assay type: cell-based, Pseudomonas aeruginosa; details: 2 µM peptide; 10^7 CFU, 1 µM SYTOX Green, 37°C, ex 485 nm/em 520 nm
Protocol: as §1

Huh 7 cells = assay: Peptide uptake into mammalian cells; assay type: cell-based, human; details: data not shown
Huh7 cells = assay: Cytotoxicity, MTT assay; assay type: cell-based, human; details: 1 hour at 37°C; HBc147-183 at 100 µM, melittin at 3.125 µM; triplicates
Protocol: (§2) Cytotoxicity was measured for HepG2, Huh7, HEK293, and Vero cells by MTT assay. Cells were seeded at 10^4 cells/well in a 96-well plate and serial dilutions of peptides were added into each well. PBS was used as a negative control and melittin was used as a positive control. After 1 hour of incubation, the medium were replaced by fresh medium containing 10% MTT solution (Promega), and the plate was incubated for 4 hours in 5% CO2 at 37°C. The absorbance at the wavelength of 595 nm was measured by an ELISA reader (Bio-Rad model 680).

HepG2 cells = assay: Cytotoxicity, MTT assay; assay type: cell-based, human; details: 1 hour at 37°C; HBc147-183 at 100 µM, melittin at 3.125 µM; triplicates
Protocol: as §2

HEK293 cells [1] = assay: Cytotoxicity, MTT assay; assay type: cell-based, human; details: 1 hour at 37°C; HBc147-183 at 100 µM, melittin at 3.125 µM; triplicates
Protocol: as §2

[2] = In vitro peptide-Lipid A binding on streptavidin beads (LAL test); design: species or system Escherichia coli; details: biotinylated peptide 0-2.5 µM on streptavidin beads, 200 µg/ml lipid A, triplicates
Protocol: Several kinds of peptide-LPS or peptide-Lipid A binding assays were performed in this study: 1) Streptavidine-conjugated beads (Dynabeads MyOne Streptavidin T1, Invitrogen) were blocked by P. aeruginosa LPS (Sigma) at 37°C for 1.5 hour. After washing with PBST (PBS, pH 7.4 containing 0.1% (w/v) Tween-20), aliquots containing 250 pmol streptavidine-conjugated beads were incubated with a reaction mixture overnight at 4°C. The reaction mixture was prepared by mixing increasing amounts of biotinylated peptide HBc147-183 (0, 0.004, 0.02, 0.1, 0.5 and 2.5 µM) and 5 µg/ml P. aeruginosa LPS (Sigma) or 200 µg/ml E. coli lipid A (Sigma), at 37°C for 3 hour. After incubation overnight at 4°C, the reduction of LPS (or Lipid A) in the supernatants were measured by the Limulus Amebocyte Lysate (LAL) test (Charles River Endosafe) with an ELISA reader (Molecular Devices). The amount (EU/ml) of LPS was calculated according to the standard curve prepared with Endosafe Control Srandard Endotoxin. […] After trypsinization, the trypsin-released LPS in the supernatants were collected and measured by the Limulus Amebocyte Lysate (LAL) test. […] Plate-bound HBc147-183 was measured by streptavidin conjugated with HRP (1∶10000 dilution) for 1 hour at 37°C. […] The absorption was measured at 450 nm with a reference wavelength at 655 nm.

[3] = system: human red blood cells (hRBCs); assay: Hemolytic activity; assay type: cell-based; details: 10% hRBCs in PBS, 1 h at 37°C, absorbance 405 nm; 100% = 1% Triton X-100; triplicates
Protocol: The hemolytic activities of peptides were determined by hemolysis against human red blood cells (hRBCs). Human blood was obtained in EDTA-containing tube and was centrifuged at 450 g for 10 min. The pellet was washed three times with PBS buffer, and a solution of 10% hRBCs was prepared. hRBCs solution was mixed with serial dilutions of peptides in PBS buffer, and the reaction mixtures were incubated for 1 h at 37°C. After centrifugation at 450 g for 10 min, the percentage of hemolysis was determined by measuring the absorbance at the wavelength of 405 nm of the supernatant. Blank and 100% hemolysis were determined in PBS buffer and in the presence of 1% Triton X-100, respectively.

[4] = system: Klebsiella pneumoniae Xen39; assay: IVIS imaging of infected mice; assay type: in vivo; details: 10 mg/kg at 1 hour, imaged 4 hours post-inoculation; 10^7 cfu/mouse; n = 5; P<0.01 vs PBS
HEK293 cells [5] = assay: CFSE cell proliferation assay; assay type: cell-based, human; details: 5, 25 and 100 µM for 1 hour; flow cytometry
Protocol: To set up CFSE cell proliferation assay, 293 cells (human kidney origin) and Vero cells (monkey kidney origin) were resuspended in PBS to a final concentration of 10^6 cells/ml, before incubation with 10 µM CFSE dye (CellTrace CFSE cell proliferation kit, Invitrogen) at 37°C for 10 min. To quench the staining, ice-old culture media were then added and incubated on ice for 5 min. Labeled cells were then pelleted and washed three times by fresh medium containing 10% FBS before seeding into six well plates at a density of 3.3×10^5cells/well. After 20 h, the medium was removed and incubated with fresh medium containing 5, 25 and 100 µM HBc 147-183 for one hour (FITC-labeled ARD peptide had been largely internalized in 10 minutes after the addition of ARD peptides to the medium of HepG2 cells). Forty-eight hours later, cells were harvested and analyzed by flow cytometry (FACSCanto, BD Bioscience).

CC(C)[C@H](NC(=O)[C@@H](NC(=O)[C@@H](N)[C@@H](C)O)C(C)C)C(=O)N[C@@H](CCCNC(=N)N)C(=O)N[C@@H](CCCNC(=N)N)C(=O)N[C@@H](CCCNC(=N)N)C(=O)NCC(=O)N[C@@H](CCCNC(=N)N)C(=O)N[C@@H](CO)C(=O)N1CCC[C@H]1C(=O)N[C@@H](CCCNC(=N)N)C(=O)N[C@@H](CCCNC(=N)N)C(=O)N[C@@H](CCCNC(=N)N)C(=O)N[C@H](C(=O)N1CCC[C@H]1C(=O)N[C@@H](CO)C(=O)N1CCC[C@H]1C(=O)N[C@@H](CCCNC(=N)N)C(=O)N[C@@H](CCCNC(=N)N)C(=O)N[C@@H](CCCNC(=N)N)C(=O)N[C@@H](CCCNC(=N)N)C(=O)N[C@@H](CO)C(=O)N[C@@H](CCC(N)=O)C(=O)N[C@@H](CO)C(=O)N1CCC[C@H]1C(=O)N[C@@H](CCCNC(=N)N)C(=O)N[C@@H](CCCNC(=N)N)C(=O)N[C@@H](CCCNC(=N)N)C(=O)N[C@@H](CCCNC(=N)N)C(=O)N[C@@H](CO)C(=O)N[C@@H](CCC(N)=O)C(=O)N[C@@H](CO)C(=O)N[C@@H](CCCNC(=N)N)C(=O)N[C@@H](CCC(=O)O)C(=O)N[C@@H](CO)C(=O)N[C@@H](CCC(N)=O)C(=O)N[C@@H](CS)C(=O)O)[C@@H](C)O [HBc147-183] (H-TVVRRRGRSPRRRTPSPRRRRSQSPRRRRSQSRESQC-OH; N-terminus and C-terminus assumed)
Membrane permeabilization (SYTOX Green uptake) (S. aureus): not able to induce membrane permeabilization
Membrane permeabilization (SYTOX Green uptake) (P. aeruginosa): significant degree of membrane permeabilization
Penetration through the cell membrane (Huh 7 cells): can penetrate through the cell membrane
Cell viability / cytotoxicity (MTT) (Huh7 cells): low level of cytotoxicity
Cell viability / cytotoxicity (MTT) (HepG2 cells): low level of cytotoxicity
Cell viability / cytotoxicity (MTT) (HEK293 cells [1]): low level of cytotoxicity
Binding to Lipid A [2]: Lipid A can bind to HBc147-183 directly
Hemolysis [3]: no detectable hemolysis
Bioluminescence of infected mice [4]: very weak
Effect on cell proliferation (CFSE intensity, day 3 vs mock) (HEK293 cells [5]): no significant effect
